Experimental data taken from patent publication US10821100B2, “Triazolone compounds as mPGES-1 inhibitors” (Glenmark Pharmaceuticals S.A., priority 2012, dated 2020).

Target: T1, Recombinant human mPGES-1 (Homo sapiens, UniProt O14684)
T1 construct: made in house; host or cells: CHO cells (crude microsomal fractions)
T1 sequence (O14684 1-152): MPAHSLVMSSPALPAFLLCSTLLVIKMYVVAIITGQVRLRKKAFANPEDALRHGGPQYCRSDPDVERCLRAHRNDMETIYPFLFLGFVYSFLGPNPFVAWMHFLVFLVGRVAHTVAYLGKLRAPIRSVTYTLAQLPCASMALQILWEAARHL
Experiment: In-vitro screening of mPGES-1 inhibitors (inhibition of PGE2 formation from PGH2, HTRF detection)
Type: biochemical
Details: mPGES-1 enzyme; for inhibition at 1 µM: 1 μM test compound, read-out: Percentage inhibition at 1 μM; for inhibition at 1 µM / inhibition at 10 µM: crude microsomal fractions; for inhibition at 10 µM: 10 μM test compound, read-out: Percentage inhibition at 10 μM; for IC50: class symbols
Method in brief: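 Crude CHO-expressed microsomes (40–60 μg/mL protein) preincubated 10 min with compound in 0.1 M potassium phosphate/2 mM EDTA containing 2.5 mM GSH, 0.5% DMSO final. PGH2 (15 μM) reacted 1 min, stopped with stannous chloride. PGE2 quantified by HTRF, IC50 from nonlinear regression of percent inhibition.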

Row | SMILES | inhibition at 1 µM [%] | inhibition at 10 µM [%] | IC50 [nM]
1 | O=C(NCC1CC1)c1ccc(-n2nc(-c3c(F)cccc3Cl)[nH]c2=O)cc1 [Example-17, 4-[3-(2-Chloro-6-fluorophenyl)-5-oxo-4,5-dihydro-1H-1,2,4-triazol-1-yl]-N-(cyclopropylmethyl)benzamide] | 2.52 | 44.1 | –
2 | COc1cc(-n2nc(-c3c(F)cccc3Cl)[nH]c2=O)ccc1-c1nc(-c2ccc(Cl)cc2)no1 [Example-40, 3-(2-Chloro-6-fluorophenyl)-1-(4-(3-(4-chlorophenyl)-1,2,4-oxadiazol-5-yl)-3-methoxyphenyl)-1H-1,2,4-triazol-5(4H)-one] | 89 | 90.7 | < 50
3 | COc1cc(-n2nc(-c3c(F)cccc3Cl)[nH]c2=O)ccc1C(=O)Nc1nc2ccc(F)cc2s1 [Example-45, 4-(3-(2-Chloro-6-fluorophenyl)-5-oxo-4,5-dihydro-1H-1,2,4-triazol-1-yl)-N-(6-fluorobenzo[d]thiazol-2-yl)-2-methoxybenzamide] | 81.7 | 90.1 | < 50
4 | COc1cc(-n2nc(-c3c(F)cccc3Cl)[nH]c2=O)ccc1C#Cc1cc(Cl)ccc1Cl [Example-59, 3-(2-Chloro-6-fluorophenyl)-1-(4-((2,5-dichlorophenyl)ethynyl)-3-methoxyphenyl)-1H-1,2,4-triazol-5(4H)-one] | 93.9 | 96.8 | < 50

Continued, values first:

Row | inhibition at 1 µM [%] | inhibition at 10 µM [%] | IC50 [nM] | SMILES
5 | 99.1 | 97.1 | < 50 | O=C(NCc1ccc(Cl)c(-n2nc(-c3ccc(C#Cc4ccc(Cl)cc4F)cc3F)[nH]c2=O)c1)C1CC1 [Example-79, N-(4-Chloro-3-(3-(4-((4-chloro-2-fluorophenyl)ethynyl)-2-fluorophenyl)-5-oxo-4,5-dihydro-1H-1,2,4-triazol-1-yl)benzyl)cyclopropanecarboxamide]
6 | 92.9 | 94 | < 50 | CC(C)(C)S(=O)(=O)NCc1ccc(Cl)c(-c2nn(-c3ccc(C(F)(F)F)cc3)c(=O)[nH]2)c1 [Example-182, N-(4-Chloro-3-(5-oxo-1-(4-(trifluoromethyl)phenyl)-4,5-dihydro-1H-1,2,4-triazol-3-yl)benzyl)-2-methylpropane-2-sulfonamide]
7 | 97.8 | 98.3 | < 50 | COc1cc(-n2nc(-c3c(Cl)cccc3C#N)[nH]c2=O)ccc1C(=O)Nc1cccc(C(F)(F)F)c1 [Example-62, 4-(3-(2-Chloro-6-cyanophenyl)-5-oxo-4,5-dihydro-1H-1,2,4-triazol-1-yl)-2-methoxy-N-(3-(trifluoromethyl)phenyl)benzamide]
8 | 98.7 | 99 | < 50 | CC(C)(C)C(=O)NCc1ccc(Cl)c(-c2nn(-c3ccc(C(F)(F)F)nc3)c(=O)[nH]2)c1F [Example-95, N-(4-Chloro-2-fluoro-3-(5-oxo-1-(6-(trifluoromethyl)pyridin-3-yl)-4,5-dihydro-1H-1,2,4-triazol-3-yl)benzyl)pivalamide]
9 | 42.7 | 91.5 | – | COc1cc(-c2nn(-c3c(Cl)cccc3Cl)c(=O)[nH]2)ccc1C(=O)Nc1cc(C(F)(F)F)ccc1F [Example-178, 4-(1-(2,6-Dichlorophenyl)-4,5-dihydro-5-oxo-1H-1,2,4-triazol-3-yl)-N-(2-fluoro-5-(trifluoromethyl)phenyl)-2-methoxybenzamide]
10 | 97.5 | 99.9 | < 50 | CC(C)(C)C(=O)NCc1ccc(Cl)c(-c2nn(-c3ccc(Cl)c(Cl)c3)c(=O)[nH]2)c1F [Example-83, N-(4-Chloro-3-(1-(3,4-dichlorophenyl)-5-oxo-4,5-dihydro-1H-1,2,4-triazol-3-yl)-2-fluorobenzyl)pivalamide]
